According to ChEMBL document CHEMBL3779887, “Robenidine Analogues as Gram-Positive Antibacterial Agents” (J Med Chem, 2016):
Converted amounts (≈) assume the structure as drawn. The source made the active and inactive calls. The calls are words filed in the database; no cut-off is given here.

Experiments:
[1] = Lipophilicity, logD of the compound at pH 7.4; assay type: physicochemical; conditions: buffer
Escherichia coli = assay: Antibacterial activity against Escherichia coli ATCC 25922 after 20 to 24 hrs; assay type: functional
[2] = Half life of compound in mouse liver microsomes; assay type: ADME
[3] = Metabolic stability in human liver microsomes assessed as compound loss after 60 mins; assay type: ADME; conditions: read-out: Drug degradation
Enterococcus = assay: Antibacterial activity against vancomycin-resistant Enterococcus after 20 to 24 hrs; assay type: functional
Staphylococcus aureus = assay: Antibacterial activity against methicillin-resistant Staphylococcus aureus after 20 to 24 hrs; assay type: functional
[4] = Intrinsic clearance in mouse liver microsomes assessed per mg of protein; assay type: ADME; conditions: read-out: CLH
[5] = Intrinsic clearance in human liver microsomes assessed per mg of protein; assay type: ADME; conditions: read-out: CLH
[6] = Solubility of the compound at pH 2; assay type: physicochemical; conditions: buffer
[7] = Solubility of the compound at pH 6.5; assay type: physicochemical; conditions: buffer
[8] = Half life of compound in human liver microsomes; assay type: ADME
[9] = Lipophilicity, logD of the compound at pH 3; assay type: physicochemical; conditions: buffer
[10] = Selectivity ratio of MIC for methicillin-resistant Staphylococcus aureus to MIC for vancomycin-resistant Enterococcus; assay type: functional
Pseudomonas aeruginosa = assay: Antibacterial activity against Pseudomonas aeruginosa ATCC 27853 after 20 to 24 hrs; assay type: functional

N=C(N/N=C(\CO)c1ccc(Cl)cc1)N/N=C(\CO)c1ccc(Cl)cc1
logD [1]: 4 | Activity (Escherichia coli): inactive | half-life [2]: 2.18 h | metabolised at 1 h [3]: < 15% | MIC (Enterococcus): 15.2 µM (≈ 5.99 µg/mL) | MIC (Staphylococcus aureus): 20.3 µM (≈ 8 µg/mL) | microsomal CLint [4]: 13 µL/min/mg | microsomal CLint [5]: < 7 µL/min/mg | solubility [6]: 25 µg/mL (≈ 63.4 µM) | solubility [7]: < 1.6 µg/mL | half-life [8]: > 4.12 h | logD [9]: 3.2

N=C(N/N=C/c1cccc(Br)c1)N/N=C/c1cccc(Br)c1
MIC (Escherichia coli): > 400 µM | MIC (Enterococcus): 15.4 µM (≈ 6.52 µg/mL) | MIC (Staphylococcus aureus): > 400 µM | Selectivity ratio [10]: 10 | MIC (Pseudomonas aeruginosa): > 400 µM
